Assay results as given in US11992013B2, “Feral hog toxicant” (priority 2019, dated 2024).

Tests used:
[1] = molecular target: methemoglobin reductase (MR); details: MR inhibitor; cited from earlier work
[2] = test system: methemoglobin reductase (MR); test: Inhibition of methemoglobin reductase (MR) by luteolin; format: biochemical; details: assuming about 65 mL blood per kilogram body mass in the pig; no experimental data
Excerpt: An optional embodiment enhances the effective of sodium nitrite by incorporating the flavonoid luteolin into a bait. Luteolin is found in botanical sources including celery, broccoli, green pepper, parsley, thyme, dandelion, perilla, chamomile, carrots, olive oil, peppermint, rosemary, oranges and other citrus, oregano, and certain palm seeds. The mechanism of sodium nitrite toxicity is to oxidize hemoglobin in the blood to methemoglobin, converting the iron atom from the ferrous form to the ferric form. Methemoglobin has a poor ability to transport oxygen to cells. Methemoglobin is naturally present in mammalian blood at 1-2% of total hemoglobin, a level that is ordinarily tempered by the enzyme methemoglobin reductase (MR). […] Because hogs have a poor ability to detoxify methemoglobin build-up, they are inherently more prone to developing high concentrations of methemoglobin upon exposure to sodium nitrite, which can quickly lead to death. In an optional embodiment, this physiology is further exploited by incorporating MR inhibitors into the bait, thus facilitating control of feral hogs while releasing less total nitrite into the environment. Luteolin is a highly-potent, commercially-available, naturally-occurring, tasteless MR inhibitor. Adding small amounts of luteolin to a nitrite-containing bait will reduce a hog's ability to detoxify methemoglobin. […]

[3] = neutral or acidic pH; cited from earlier work
feral hogs = test: Vomiting after toxicant baits are consumed; format: in vivo, Sus scrofa; details: preliminary results
Excerpt: Another difficulty of using sodium nitrite as a toxicant is that feral hogs can sometimes vomit the baits. The acidic decomposition of sodium nitrite in gastric juices can lead to the release of noxious, gaseous by-products that can induce vomiting. This tendency can be counteracted by incorporating into the bait antiemetic compounds, antacid compounds, or both. Antacids include such compounds as sodium carbonate, sodium bicarbonate, calcium carbonate, magnesium hydroxide, magnesium carbonate, potassium carbonate, amines (e.g. from fish), and potassium bicarbonate. Antacids such as sodium carbonate also help maintain a higher pH level before the bait is consumed. Then after consumption the antacids can help neutralize gastric acid, both inhibiting the breakdown of sodium nitrite in vivo, and also helping to reduce vomiting. […] Anti-emetics can also be employed, for example taste-free ginger extracts containing gingerols. […] Gingerols have the same mechanism of action as drugs such as Zofran (ondansetron), which are prescribed in humans for the treatment of severe, chemotherapy-induced nausea. Other anti-emetics known in the art may also be used.

adult hogs = details: cited from earlier work

For `O=c1cc(-c2ccc(O)c(O)c2)oc2cc(O)cc(O)c12` [luteolin], the IC50 [1] is listed as roughly 110 nM, the “amount of luteolin needed for 50% inhibition of the MR enzyme” value [2] is listed as ~2 micrograms per kilogram body mass and the water solubility [3] is listed as “poorly soluble”.
With `O=C([O-])[O-].[Na+].[Na+]` [sodium carbonate] the “effect on vomiting after toxicant baits are consumed” value (feral hogs) was “effective in reducing vomiting”.
In the case of `O=NO` [sodium nitrite], the LD90 (adult hogs) is listed as “about 189 mg/kg”.
